For 9 compounds, inhibition, IC50 and Activity results are on record in ChEMBL document CHEMBL3351436, “Structure-activity studies of (-)-epigallocatechin gallate derivatives as HCV entry inhibitors” (Bioorg Med Chem Lett, 2014).

The subject of data set [1] is Hepatitis C virus. Briefly: Antiviral activity against HCV genotype 1a assessed as inhibition of viral entry into Huh7 cells treated at 50 uM for 2 hr followed by 28 hrs incubation period in compound-free medium by immunofluorescence assay. The data set is classed as functional, cell-based. The note with it: Hepacivirus hominis, subtype 1a, Huh-7.
Data set [2] deals with Hepatitis C virus. Briefly: Antiviral activity against HCV genotype 1a assessed as inhibition of viral entry into Huh7 cells treated for 2 hr followed by 28 hrs incubation period in compound-free medium by immunofluorescence assay. Type of data set: functional, cell-based, Hepacivirus hominis. Conditions: subtype 1a, Huh-7.
The nature of data set [3]: Cytotoxicity against human HuH7 cells assessed as reduction cell viability up to 1 mM after 48 to 72 hrs by MTS assay. The data set is classed as cell-based. Conditions: huh-7. A general note: Formazan colour is commonly taken as a measure of viable cells.

SMILES strings stand for the structures. Calls of active or inactive are those of the source. No cut-off for these calls is given here.

For the compound `CC1Oc2ccc(C#N)cc2C=C1C(=O)N[C@H]1CC[C@@H](N)CC1` (some centres undefined), in the data set with Hepatitis C virus [1], the inhibition entry was “inactive”.
For the compound `O=C(O[C@@H]1Cc2c(O)cc(O)cc2O[C@@H]1c1cc(O)c(O)c(O)c1)c1ccccc1`, the inhibition result with Hepatitis C virus [1] is “Active”. Also, the IC50 (commonly the point on the concentration scale where inhibition reaches its midpoint) in the data set on Hepatitis C virus [2] stood at 27 µM. In addition, the Activity entry in data set [3] is on record as “Non-toxic”.
For the compound `O=C(O[C@@H]1Cc2c(O)cc(O)cc2O[C@@H]1c1cc(O)c(O)c(O)c1)c1cc(O)c(O)c(O)c1` [EPIGALOCATECHIN GALLATE], the inhibition entry with Hepatitis C virus [1] was “Active”. Besides, the IC50 in the data set with Hepatitis C virus [2] was 20 µM.
On to `CC1Oc2ccc(C#N)cc2C=C1C(=O)NC1CCNCC1` (centres undefined), for which the inhibition result with Hepatitis C virus [1] was “inactive”.
Turning to `O=C(O[C@@H]1Cc2ccccc2O[C@@H]1c1ccccc1)c1cc(O)c(O)c(O)c1` (racemic), the inhibition result in the data set on Hepatitis C virus [1] is “inactive”.
Still for that read-out and setting: under `O=C(O[C@@H]1Cc2c(O)cc(O)cc2O[C@H]1c1cc(O)c(O)c(O)c1)c1cc(O)c(O)c(O)c1` stands “Active”.
Take `O=C(O[C@@H]1Cc2c(O)cc(O)cc2O[C@@H]1c1cc(O)c(O)c(O)c1)c1ccc(F)c(F)c1`: the inhibition entry with Hepatitis C virus [1] is “Active”. For the same compound, the IC50 with Hepatitis C virus [2] was determined as 6.9 µM. The Activity entry in data set [3] is on record as “Non-toxic”.
On to `O=C(O[C@H]1Cc2c(O)cc(O)cc2O[C@@H]1c1ccccc1)c1cc(O)c(O)c(O)c1` (racemic), for which the inhibition result with Hepatitis C virus [1] was “inactive”.
On the same count and under the same terms, the value for `O=C(O[C@@H]1Cc2c(O)cc(O)cc2O[C@@H]1c1cc(O)c(O)c(O)c1)c1ccncc1` was “inactive”.
